Values of other authors as cited in patent US8492370B2, “Compounds and methods for their production” (Bristol-Myers Squibb Company, priority 2006, dated 2013).

How the values were obtained:
[1] = target: terminal deoxynucleotidyl transferase (Homo sapiens, UniProt P04053)
[2] = system: Reverse transcriptase
[3] = system: SKBr3; conditions: compared with geldanamycin and 17-AAG
[4] = target: Hsp90 (Homo sapiens, UniProt P07900)

terminal deoxynucleotidyl transferase, sequence (P04053 whole entry, species assumed): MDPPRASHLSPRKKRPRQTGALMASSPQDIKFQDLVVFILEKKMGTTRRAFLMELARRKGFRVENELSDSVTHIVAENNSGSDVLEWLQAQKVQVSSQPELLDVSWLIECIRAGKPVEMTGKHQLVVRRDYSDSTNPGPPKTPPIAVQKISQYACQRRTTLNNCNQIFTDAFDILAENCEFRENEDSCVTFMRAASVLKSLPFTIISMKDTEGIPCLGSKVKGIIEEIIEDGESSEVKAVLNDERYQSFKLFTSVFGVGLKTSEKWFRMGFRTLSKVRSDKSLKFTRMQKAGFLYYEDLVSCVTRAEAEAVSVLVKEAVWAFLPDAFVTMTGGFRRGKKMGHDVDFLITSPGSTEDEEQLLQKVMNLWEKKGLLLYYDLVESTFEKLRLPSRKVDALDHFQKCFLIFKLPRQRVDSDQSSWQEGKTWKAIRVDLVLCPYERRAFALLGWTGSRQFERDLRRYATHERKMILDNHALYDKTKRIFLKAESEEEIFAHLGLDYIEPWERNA

Row | Structure (SMILES) | terminal deoxynucleotidyl transferase activity inhibition [1] | Reverse transcriptase activity inhibition [2] | IC50 measurement using SKBr3 [3] | binding affinity to Hsp90, fold greater than 17-AAG ([4]; relative to 17-AAG) [fold] | binding affinity to Hsp90, fold greater than geldanamycin ([4]; relative to geldanamycin) [fold]
1 | CO[C@H]1[C@@H](OC)C[C@H](C)[C@@H](OC)C2=CC(=O)C=C(NC(=O)/C(C)=C/C=C\[C@H](C)[C@@H](OC(N)=O)/C(C)=C/[C@@H]1C)C2=O [macbecin] | not inhibited | not inhibited |  |  | 
2 | CO[C@H]1C[C@H](C)Cc2cc(O)cc(c2)NC(=O)/C=C/CC[C@H](OC)[C@@H](OC(N)=O)/C(C)=C/[C@H](C)[C@H]1O [KOSN1559] |  |  | not reflected in an improvement | 8 | 4
